# ChEMBL document CHEMBL5230118, “Therapeutic potential of uracil and its derivatives in countering pathogenic and physiological disorders” (Eur J Med Chem, 2020)
# Columns and labels:
# DLD-1 = test: Antiproliferative activity against human DLD-1 cells assessed as cell growth inhibition; assay type: functional, cell-based
# COLO-320-HSR = test: Antiproliferative activity against human COLO 320HSR cells assessed as cell growth inhibition; assay type: functional, cell-based
# HT-29 = test: Antiproliferative activity against human HT-29 cells assessed as cell growth inhibition; assay type: functional, cell-based
# [1] = Bioavailability in human; assay type: ADME, organism-based; conditions: in vivo
# in vivo = conditions: mouse
# Human alphaherpesvirus 3 = test: Antiviral activity against clinical isolate VZV; assay type: functional, organism-based
smiles,measurement,setting,value
O=c1[nH]c(=O)n([C@@H]2O[C@H](CO)[C@@H](O)[C@@H]2O)cc1F,IC50,DLD-1,0.052 µM
same,IC50,COLO-320-HSR,0.023 µM
same,IC50,HT-29,0.041 µM
Cn1c(=O)cc(N2CCC[C@@H](N)C2)n(Cc2ccccc2C#N)c1=O [ALOGLIPTIN],bioavailability,[1],75%
O=c1[nH]cc(F)c(=O)[nH]1 [FLUOROURACIL],half-life,in vivo,16 min
CC#Cc1cn([C@@H]2O[C@H](CO)[C@@H](O)[C@@H]2O)c(=O)[nH]c1=O [NETIVUDINE],IC50,Human alphaherpesvirus 3,1 µM
same,bioavailability,[1],25%
